Source: US20080234327A1, “DIHYDROINDAZOLE COMPOUNDS USEFUL IN TREATING IRON DISORDERS” (XENON PHARMACEUTICALS INC., priority 2007, published 2008)

Tests used:
DMT1 = target: T1, DMT1 (Homo sapiens, UniProt P49281); assay: DMT1 activity assay (in vitro); assay type: cell-based; details: inhibition of DMT1; read-out: IC50 Activity Level
T1 sequence (P49281 1-568): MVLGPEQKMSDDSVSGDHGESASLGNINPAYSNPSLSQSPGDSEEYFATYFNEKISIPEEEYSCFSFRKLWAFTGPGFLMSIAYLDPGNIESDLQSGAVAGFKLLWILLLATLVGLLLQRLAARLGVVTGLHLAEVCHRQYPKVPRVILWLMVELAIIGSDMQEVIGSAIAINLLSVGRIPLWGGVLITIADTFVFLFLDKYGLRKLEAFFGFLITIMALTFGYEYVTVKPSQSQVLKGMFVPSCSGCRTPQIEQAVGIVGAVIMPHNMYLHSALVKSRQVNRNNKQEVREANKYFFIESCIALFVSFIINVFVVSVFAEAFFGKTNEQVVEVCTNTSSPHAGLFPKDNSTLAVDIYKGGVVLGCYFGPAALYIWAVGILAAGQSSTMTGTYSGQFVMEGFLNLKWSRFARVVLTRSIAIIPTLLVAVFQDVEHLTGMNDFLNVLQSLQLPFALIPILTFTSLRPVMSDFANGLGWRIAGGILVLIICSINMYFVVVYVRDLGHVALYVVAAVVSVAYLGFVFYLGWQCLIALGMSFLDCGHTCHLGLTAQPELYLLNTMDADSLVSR
Description: One such protocol involves the screening of chemical agents for ability to modulate the activity of DMT1 thereby identifying it as a modulating agent. The in vitro activity of DMT1 can be measured in cell based assays by either directly measuring iron flux (using a radioactively labelled iron ^55Fe) or by measuring the fluorescence of a cell permeable iron fluorophore such as calcein. Stable cell lines overexpressing DMT1 are exposed to ^55Fe or loaded with calcein and then compound is applied. […] Alternatively, in another format electrophysiological techniques can be used to measure the current or iron or other metals traversing the cell membrane with DMT1 in a Xenopus oocyte or other cell based system (Gunshin et al., Nature, 1997, 31; 388(6641):482-8).
This example discloses various in vitro assay for testing and profiling test agents against DMT1 stably expressed in cells of either an endogenous or recombinant origin. These assays can use stable cell lines overexpressing DMT1 or intestinal cells and intestinal tissue expressing endogenous DMT1. DMT1 function could also be assessed in other cell types that express DMT1. Of greatest relevance would be the erythrocytes (e.g. K562 cells) or hepatocytes (e.g. […]).
DMT1 function can be assessed in a number of ways, including monitoring fluorescence changes of an iron fluorophore (e.g. calcein), monitoring uptake of radiolabelled iron (^55Fe or ^59Fe) (Picard et al., J. Biol. Chem., 2000, 275(46):35738-45 and Wetli et al., Chem. Biol. 2006 September; 13(9):965-72), or by assessing the current or transport of iron and other metals into the cells or tissues using standard electrophysiological techniques (Gunshin et al., Nature, 1997, 388(6641):482-8.).
Variations of these assays involve alterations of incubation times, the iron status of the cells and tissues (which may be modulated by chemical chelators or by harvesting from iron deficient animals), the metal cation detected and the pH of the reaction can generally be made by conventional techniques known to those skilled in the art.

| melting point [°C] | IC50 (DMT1) [nM] | SMILES |
| --- | --- | --- |
| 161 to 162 | 100 to 1000 | Oc1c2c(nn1-c1cc(C(F)(F)F)ccn1)CCc1ccccc1-2 [Example 1.11, 2-(4-(trifluoromethyl)pyridin-2-yl)-4,5-dihydro-2H-benzo[e]indazol-1-ol] |
| 156 to 157 | 100 to 1000 | Cc1ccc(-n2nc3c(c2O)-c2ccccc2CC3)nc1 [Example 2, 2-(5-methylpyridin-2-yl)-4,5-dihydro-2H-benzo[e]indazol-1-ol] |
| 145 to 146 | – | Oc1c2c(nn1-c1ccccn1)CCc1ccccc1-2 [Example 1, 2-pyridin-2-yl-4,5-dihydro-2H-benzo[e]indazol-1-ol] |
| 246 to 247 | – | Oc1c2c(nn1-c1nc3ccc(F)cc3s1)CCc1ccccc1-2 [Example 4.3, 2-(6-fluorobenzo[d]thiazol-2-yl)-4,5-dihydro-2H-benzo[e]indazol-1-ol] |
| 274 to 275 | ≥ 1000 | N#Cc1ccc(-c2ccc3c(c2)CCc2nn(-c4ccccn4)c(O)c2-3)cc1 [Example 1.9, 4-(1-hydroxy-2-pyridin-2-yl-4,5-dihydro-2H-benzo[e]indazol-7-yl)-benzonitrile] |
| 204 to 205 | – | COc1ccc2nc(-n3nc4c(c3O)-c3ccccc3CC4)sc2c1 [Example 4.2, 2-(6-methoxybenzo[d]thiazol-2-yl)-4,5-dihydro-2H-benzo[e]indazol-1-ol] |
| 226 to 227 | 100 to 1000 | O=[N+]([O-])c1ccc(-n2nc3c(c2O)-c2ccccc2CC3)nc1 [Example 1.13, 2-(5-nitropyridin-2-yl)-4,5-dihydro-2H-benzo[e]indazol-1-ol] |
| 155 to 156 | – | [O-][n+]1ccccc1-n1nc2c(c1O)-c1ccccc1CC2 [Example 3, 2-(1-hydroxy-4,5-dihydro-2H-benzo[e]indazol-2-yl)pyridine 1-oxide] |
| 232 to 233 | – | N#Cc1ccc2c(c1)CCc1nn(-c3ccccn3)c(O)c1-2 [Example 1.4, 1-hydroxy-2-pyridin-2-yl-4,5-dihydro-2H-benzo[e]indazole-7-carbonitrile] |
| 205 to 206 | 100 to 1000 | Oc1c2c(nn1-c1ccccn1)CCc1cc(-c3ccc4c(c3)OCO4)ccc1-2 [Example 1.8, 7-benzo[1,3]dioxol-5-yl-2-pyridin-2-yl-4,5-dihydro-2H-benzo[e]indazol-1-ol] |
| 224 to 225 | – | Cc1cccc2sc(-n3nc4c(c3O)-c3ccccc3CC4)nc12 [Example 4.5, 2-(4-methylbenzo[d]thiazol-2-yl)-4,5-dihydro-2H-benzo[e]indazol-1-ol] |
| 80 to 81 | 100 to 1000 | Oc1c2c(nn1-c1ccccn1)CCCc1ccccc1-2 [Example 7, 2-pyridin-2-yl-2,4,5,6-tetrahydro-2,3-diaza-benzo[e]azulen-1-ol] |
| 174 to 175 | ≥ 1000 | Oc1c2c(nn1-c1ncccc1C(F)(F)F)CCc1ccccc1-2 [Example 1.12, 2-(3-(trifluoromethyl)pyridin-2-yl)-4,5-dihydro-2H-benzo[e]indazol-1-ol] |
| > 250 | ≥ 1000 | CC(C)(C)c1csc(-n2nc3c(c2O)-c2ccccc2CC3)n1.Cl [Example 5, 2-(4-tert-butylthiazol-2-yl)-4,5-dihydro-2H-benzo[e]indazol-1-ol hydrochloride] |
| 177 to 178 | – | Cc1ccc(-c2ccc3c(c2)CCc2nn(-c4ccccn4)c(O)c2-3)cc1 [Example 1.6, 2-pyridin-2-yl-7-p-tolyl-4,5-dihydro-2H-benzo[e]indazol-1-ol] |
| 159 to 160 | – | COc1ccc(-c2ccc3c(c2)CCc2nn(-c4ccccn4)c(O)c2-3)cc1 [Example 1.7, 7-(4-methoxyphenyl)-2-pyridin-2-yl-4,5-dihydro-2H-benzo[e]indazol-1-ol] |
| 205 to 206 | – | Oc1c2c(nn1-c1nc3ccccc3[nH]1)CCc1ccccc1-2 [Example 6, 2-(1H-benzo[d]imidazol-2-yl)-4,5-dihydro-2H-benzo[e]indazol-1-ol] |
| > 280 | – | O=C(O)c1ccc2nc(-n3nc4c(c3O)-c3ccccc3CC4)sc2c1 [Example 4.6, 2-(1-hydroxy-4,5-dihydro-2H-benzo[e]indazol-2-yl)benzo[d]thiazole-6-carboxylic acid] |
| 234 to 235 | – | Oc1c2c(nn1-c1nc3ccccc3s1)CCc1ccccc1-2 [Example 4, 2-(benzo[d]thiazol-2-yl)-4,5-dihydro-2H-benzo[e]indazol-1-ol] |
| 218 to 219 | – | Cc1ccc2nc(-n3nc4c(c3O)-c3ccccc3CC4)sc2c1 [Example 4.4, 2-(6-methylbenzo[d]thiazol-2-yl)-4,5-dihydro-2H-benzo[e]indazol-1-ol] |
| 116 to 117 | ≥ 1000 | COc1ccc2c(c1)-c1c(nn(-c3ccccn3)c1O)CC2 [Example 1.3, 8-methoxy-2-pyridin-2-yl-4,5-dihydro-2H-benzo[e]indazol-1-ol] |
| 182 to 183 | 100 to 1000 | COc1ccc2c(c1)CCc1nn(-c3nc4ccccc4s3)c(O)c1-2 [Example 4.1, 2-(benzo[d]thiazol-2-yl)-7-methoxy-4,5-dihydro-2H-benzo[e]indazol-1-ol] |
| 139 to 140 | – | COc1ccc2c(c1)CCc1nn(-c3ccccn3)c(O)c1-2 [Example 1.2, 7-methoxy-2-pyridin-2-yl-4,5-dihydro-2H-benzo[e]indazol-1-ol] |
| 164 to 165 | – | Oc1c2c(nn1-c1ccccn1)CCc1cc(Br)ccc1-2 [Example 1.1, 7-bromo-2-pyridin-2-yl-4,5-dihydro-2H-benzo[e]indazol-1-ol] |
| 158 to 159 | ≥ 1000 | Oc1c2c(nn1-c1ccc(C(F)(F)F)cn1)CCc1ccccc1-2 [Example 1.10, 2-(5-(trifluoromethyl)pyridin-2-yl)-4,5-dihydro-2H-benzo[e]indazol-1-ol] |
